From paper PMC3850926, “Evaluation of the adverse event profile and pharmacodynamics of toceranib phosphate administered to dogs with solid tumors at doses below the maximum tolerated dose” (BMC Veterinary Research, 2013)

How the values were obtained:
[1] = tested on: solid tumors; test: Tumor response assessment (RECIST v.1.1); type: in vivo, dog
Method: A total of 40 dogs were enrolled in this study, with dogs initially assigned to toceranib at 2.5 mg/kg or 2.75 mg/kg EOD. All dogs were placed on famotidine at 0.5-1 mg/kg once per day at study initiation and owners were instructed to administer the toceranib in the morning with food. Physical examination, routine bloodwork (CBC, biochemistry profile) and blood sampling for assessment of toceranib and VEGF plasma concentrations was performed pretreatment and on days 0, 7, 14 and 30 of treatment. […] Owners of dogs that experienced CR, PR, or SD at study day 30 were offered the option of continuing toceranib administration for an additional 6 months (provided at no cost), although patient data was not officially captured beyond day 30.
Tumor assessments were performed on days 0, 7, 14 and 30 of study. Tumor assessment was performed using caliper measurement with digital photography documentation, thoracic radiography, ultrasonography, or spiral computerized tomography (CT) as indicated. Determination of antitumor efficacy was based on objective tumor assessments made according to the RECIST v.1.1 guidelines using unidimensional measurements. Response to therapy was defined as complete response (CR, resolution of all target and non-target lesions, no new lesions), partial response (PR, at least 30% decrease in the longest diameter of target lesions, no progression of non-target lesions, and no new lesions), stable disease (SD, decrease in target lesions of less than 30% or increase of target lesions less than 20%, no progression of non-target lesions, and no new lesions) or progressive disease (PD, greater than 20% increase in target lesions, progression of non-target, new lesions). Dogs were defined as experiencing clinical benefit if they had CR, PR, or SD.

[2] = tested on: dogs with solid tumors; test: Assessment of adverse events (VCOG-CTCAE); type: in vivo, dog
Method: All dogs were placed on famotidine at 0.5-1 mg/kg once per day at study initiation and owners were instructed to administer the toceranib in the morning with food. […] Dogs were evaluated for AEs on days 0, 7, 14, and 30 of study, as well as at interim time points as needed. AEs were defined and graded according to the published VCOG-CTCAE criteria. Disease progression or signs and symptoms definitely related to disease were not considered AEs.

[3] = number of AEs, 40 dogs, 2.4-2.9 mg/kg EOD, 30 days

## Cc1[nH]c(/C=C2\C(=O)Nc3ccc(F)cc32)c(C)c1C(=O)NCCN1CCCC1 [toceranib, Toceranib phosphate]
[1]; 35 of the 40 dogs
  average time dogs remained on toceranib after day 30: 16.7 weeks
[1]; Nasal carcinoma, N 5
  PD (number of dogs): 2
[1]; Salivary gland adenocarcinoma, N 1
  PR (number of dogs): 1
[1]; Soft tissue sarcoma, N 7
  PD (number of dogs): 2
[1]; Squamous cell carcinoma, N 4
  PR (number of dogs): 2
[1]; Thyroid carcinoma, N 7
  PR (number of dogs): 2
[1]; over 30 days
  clinical benefit (number of dogs): 36/40
[1]; over 30 days, 40 dogs
  PD (number of dogs), all tumor types: 4 dogs
  PD (percent of dogs): 10%
  PR (number of dogs), all tumor types: 5/40
  PR (percent of dogs): 12.5%
  overall clinical benefit rate (CR + PR + SD): 90%
[1]; thyroid carcinoma
  dogs that transitioned from SD to PR after day 30: one
[1]; two SCC and one salivary gland adenocarcinoma
  dogs that transitioned to CR after day 30: 3 dogs
[2]; 2.4-2.9 mg/kg EOD
  grade 3 or 4 GI adverse events: no grade 3 or 4 GI adverse events
[2]; 6 had concurrent gastrointestinal upset
  dogs with increased BUN without concomitant increase in creatinine: 9 dogs
[2]; 6 had mild anemia of chronic disease before treatment
  dogs with grade 1 anemia: Thirteen
[2]; 40 dogs, 30 days
  clinical evidence of hepatotoxicity: no dogs
  dogs that developed grade 1 anorexia (number): Thirteen
  dogs that developed grade 1 anorexia (percent): 32.5%
  dogs that developed grade 1 diarrhea (number): Fifteen
  dogs that developed grade 1 vomiting (number): Eighteen
  dogs that developed grade 2 diarrhea: Six
  dogs with grade 1 increases in AST: Five
  dogs with grade 1 thrombocytopenia: 2 dogs
  dogs with grade 2 anorexia: 1 dogs
  dogs with grade 2 colitis: two
  dogs with grade 2 vomiting: 3 dogs
  dogs with grade 3 hypertension: 2 dogs
  dogs with grade 3 lameness: 1 dogs
  dogs with mild-to-moderate lameness (grade 1–2): 10 dogs
  dogs with more than one episode of grade 1 diarrhea: 10 dogs
  dogs with more than one event of grade 1 vomiting: 5 dogs
  dogs with transient grade 1 elevations in ALT: 7 dogs
[2]; after 1–3 weeks of therapy
  dogs with grade 1 neutropenia (number): 20/40
[2]; all AEs of the study
  share of AEs that were grade 1 or grade 2: 86%
  share of AEs that were grade 2: 12%
[2]; blood pressure measured only in animals with signs
  dogs that developed hypertension (any grade): 3 dogs
[2]; dog, in vivo
  adverse event profile compared to the label dose of 3.25 mg/kg EOD: substantially reduced adverse event profile
[2]; end of study period
  dogs with grade 3 AST elevation: 1 dogs
[2]; grade 1 event
  dogs with weight loss: 3 dogs
[2]; grade 1 or 2, 40 dogs, 30 days
  dogs with lethargy (number): 13 dogs
  dogs with lethargy (percent): 32.5%
[2]; initiated at 2.5 mg/kg
  dogs requiring a dose modification: five
[2]; initiated at 2.75 mg/kg
  dogs requiring a dose modification: three
[2]; [3]
  Alopecia, Grade 1: 1
  Anemia, Grade 1: 13
  Anorexia, Grade 1: 15
  Anorexia, Grade 2: 1
  Colitis, Grade 2: 2
  Constipation, Grade 1: 1
  Cough, Grade 1: 4
  Dermatitis, Grade 1: 1
  Diarrhea, Grade 1: 34
  Diarrhea, Grade 2: 6
  Epistaxis, Grade 1: 3
  Fever, Grade 2: 1
  Hand-foot syndrome, Grade 1: 1
  Hypertension, Grade 1: 1
  Hypertension, Grade 3: 2
  Hypopigmentation, Grade 1: 2
  Ileus, Grade 3: 1
  Increase ALP, Grade 1: 9
  Increase ALP, Grade 2: 2
  Increase ALP, Grade 3: 1
  Increase ALT, Grade 1: 7
  Increase ALT, Grade 3: 1
  Increase ALT, Grade 4: 1
  Increase AST, Grade 1: 5
  Increase AST, Grade 3: 1
  Increase BUN, Grade 1: 9
  Increase BUN, Grade 2: 1
  Increase CK, Grade 1: 2
  Lameness, Grade 1: 6
  Lameness, Grade 2: 8
  Lameness, Grade 3: 1
  Lethargy, Grade 1: 15
  Lethargy, Grade 2: 2
  Neutropenia, Grade 1: 20
  Neutropenia, Grade 2: 1
  Ocular discharge, Grade 1: 3
  Pancreatitis, Grade 3: 1
  Panting, Grade 1: 3
  Protein losing nephropathy, Grade 1: 4
  Pruritus, Grade 1: 1
  Thrombocytopenia, Grade 1: 2
  Vomiting, Grade 1: 23
  Vomiting, Grade 2: 3
  Weight loss, Grade 1: 3
  all adverse events, Grade 1 (total): 188
  all adverse events, Grade 2 (total): 27
  all adverse events, Grade 3 (total): 8
  all adverse events, Grade 4 (total): 1
[2]; remainder grade 2
  lethargy, grade 1 episodes among the affected dogs: 11
[2]; resolved after 1 week discontinuation
  dogs with depigmentation and thinning of the footpads in all 4 limbs: One
[2]; the 3 affected dogs
  weight loss, percent of initial recorded body weight: 5-10%
[2]; throughout the study period
  dogs with dose changed (drug holiday and/or dose reduction), number: 8 dogs
  dogs with dose changed (drug holiday and/or dose reduction), percent: 20%
[2]; without an apparent cause
  patients that developed protein losing nephropathy (PLN): 4 patients
